Measurements taken from US8791130B2, “Aminopyrimidine derivatives as LRRK2 modulators” (Genentech, Inc., priority 2011, dated 2014).

Target: LRRK2 (Homo sapiens (Human), UniProt Q5S007, G2019S)
Assay: In Vitro LRRK2 LabChip Assay (LRRK2 Ki)
Format: biochemical
Experimental: In Vitro LRRK2 LabChip Assay This assay was used to determine a compound's potency in inhibiting activity of LRRK2 by determining, Kiapp, IC50, or percent inhibition values. In a polypropylene plate, LRRK2, fluorescently-labeled peptide substrate, ATP and test compound were incubated together. Using a LabChip 3000 (Caliper Life Sciences), after the reaction the substrate was separated by capillary electrophoresis into two populations: phosphorylated and unphosphorylated. The relative amounts of each were quantitated by fluorescence intensity. LRRK2 Ki was determined according to the equation: […]))). Ki values in Table 4 and elsewhere herein are shown in μM. […] Substrate: 5[…] Non-binding plate: 384 well clear V-bottom polypropylene plates (Greiner cat #781280). ATP: 10 mM ATP (Cell Signaling cat #9804). Triton X-100: Triton X-100. Brij-35: Brij-35 (Pierce cat #20150). […] DMSO: DMSO (Sigma cat #34869-100 ML). […] Compound Plate Preparation: For serial dilutions, 34.6 μl DMSO was added to columns 3-24. For the assay controls, 37.5 μl DMSO was added to columns 1 and 2 of rows A and […]-028831 (Staurosporine) was added to columns 1 and 2, row B. […] A Precision instrument was used to perform 1:3.16 serial dilutions (“PLK_BM_serial_halflog”). ATP Preparation: ATP was diluted to 282.1 μM in Complete Kinase Buffer (final concentration was 130 μM). […] Assay Procedure: To a 50 μl polypropylene plate, 5 μl/well buffer/substrate was added by hand to Blank wells. A Biomek FX was used to start the kinase reaction (“PLK SAR 23 ATP”). […] 5 μl/well kinase/substrate in Assay Plate; The plate was incubated for 2 hours in the dark. Biomek FX was used to stop the kinase reaction (“PLK Stop”), and 10 μl/well Stop solution was added to the Assay Plate.

Chain of LRRK2 (Q5S007 970-2527 G2019S): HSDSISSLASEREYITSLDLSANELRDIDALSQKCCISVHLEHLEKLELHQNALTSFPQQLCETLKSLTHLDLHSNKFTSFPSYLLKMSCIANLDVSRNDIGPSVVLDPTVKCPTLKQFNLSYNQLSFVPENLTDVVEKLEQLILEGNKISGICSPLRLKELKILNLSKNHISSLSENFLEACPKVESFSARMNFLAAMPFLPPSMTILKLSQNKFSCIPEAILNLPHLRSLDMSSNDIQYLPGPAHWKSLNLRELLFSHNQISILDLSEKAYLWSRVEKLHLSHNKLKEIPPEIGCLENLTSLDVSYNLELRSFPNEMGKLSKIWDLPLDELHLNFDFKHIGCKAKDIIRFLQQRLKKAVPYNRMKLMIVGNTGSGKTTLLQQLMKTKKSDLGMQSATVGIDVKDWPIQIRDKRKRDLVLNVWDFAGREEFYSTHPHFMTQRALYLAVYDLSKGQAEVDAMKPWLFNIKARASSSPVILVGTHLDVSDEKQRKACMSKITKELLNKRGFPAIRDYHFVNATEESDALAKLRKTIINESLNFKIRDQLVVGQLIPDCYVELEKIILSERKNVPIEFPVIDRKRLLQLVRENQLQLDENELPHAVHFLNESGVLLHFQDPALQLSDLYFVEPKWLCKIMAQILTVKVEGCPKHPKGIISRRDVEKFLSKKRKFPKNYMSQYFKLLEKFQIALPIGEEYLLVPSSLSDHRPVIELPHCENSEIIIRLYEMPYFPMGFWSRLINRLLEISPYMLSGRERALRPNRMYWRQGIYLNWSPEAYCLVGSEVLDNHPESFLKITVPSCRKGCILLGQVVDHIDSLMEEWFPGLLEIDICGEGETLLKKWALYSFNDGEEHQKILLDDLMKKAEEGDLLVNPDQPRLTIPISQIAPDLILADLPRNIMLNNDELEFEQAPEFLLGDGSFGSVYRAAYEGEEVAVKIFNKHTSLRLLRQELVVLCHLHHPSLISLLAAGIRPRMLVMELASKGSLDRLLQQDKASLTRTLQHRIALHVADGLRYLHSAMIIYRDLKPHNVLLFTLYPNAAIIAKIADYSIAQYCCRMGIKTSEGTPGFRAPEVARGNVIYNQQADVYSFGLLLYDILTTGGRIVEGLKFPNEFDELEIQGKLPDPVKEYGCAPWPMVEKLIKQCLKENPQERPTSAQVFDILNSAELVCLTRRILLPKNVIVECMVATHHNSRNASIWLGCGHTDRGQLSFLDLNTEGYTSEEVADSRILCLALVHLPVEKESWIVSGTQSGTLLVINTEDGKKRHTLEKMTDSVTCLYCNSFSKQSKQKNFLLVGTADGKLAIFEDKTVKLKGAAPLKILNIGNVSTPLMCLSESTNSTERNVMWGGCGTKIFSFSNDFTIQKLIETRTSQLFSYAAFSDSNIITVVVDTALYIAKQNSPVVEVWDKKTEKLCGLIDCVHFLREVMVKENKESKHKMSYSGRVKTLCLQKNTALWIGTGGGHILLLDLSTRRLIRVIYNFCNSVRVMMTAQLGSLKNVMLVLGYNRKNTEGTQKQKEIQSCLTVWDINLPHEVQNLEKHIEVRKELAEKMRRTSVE

Question: How did the Ki turn out when `CNc1nc(Nc2cc(OC)c(-c3nc(C)no3)cc2Cl)ncc1C(F)(F)F` [Compound 31, N^2-(2-chloro-5-methoxy-4-(3-methyl-1,2,4-oxadiazol-5-yl)phenyl)-N^4-methyl-5-(trifluoromethyl) pyrimidine-2,4-diamine] was run?
Answer: The Ki was 41 nM.

Question: Which Ki does the source give for `CNc1nc(Nc2cc(OC)c(-c3cnn(C)c3)cc2Cl)ncc1C(F)(F)F` [Compound 32, N^2-(2-chloro-5-methoxy-4-(1-methyl-1H-pyrazol-4-yl)phenyl)-N^4-methyl-5-(trifluoromethyl) pyrimidine-2,4-diamine] here?
Answer: Its Ki is 11 nM.

Question: How did the Ki turn out when `CNc1nc(Nc2ccc(-c3nnc(C)o3)cc2Cl)ncc1Cl` [Compound 33, 5-chloro-N^2-(2-chloro-4-(5-methyl-1,3,4-oxadiazol-2-yl)phenyl)-N^4-methylpyrimidine-2,4-diamine] was run?
Answer: Its Ki is 30 nM.

Question: Which Ki does the source give for `CNc1nc(Nc2ccc(-c3nc(C)no3)cc2Cl)ncc1Cl` [Compound 34, 5-chloro-N^2-(2-chloro-4-(3-methyl-1,2,4-oxadiazol-5-yl)phenyl)-N^4-methylpyrimidine-2,4-diamine] here?
Answer: The Ki was 80 nM.

Question: With `CNc1nc(Nc2ccc(-c3cnn(C)c3)cc2OC)ncc1Cl` [Compound 35, 5-chloro-N^2-(2-methoxy-4-(1-methyl-1H-pyrazol-4-yl)phenyl)-N^4-methylpyrimidine-2,4-diamine] as the compound, how does the Ki read?
Answer: Its Ki is 2 nM.

Question: With `CNc1nc(Nc2cc(OC)c(-c3nc(C)no3)cc2Cl)ncc1Cl` [Compound 36, 5-chloro-N^2-(2-chloro-5-methoxy-4-(3-methyl-1,2,4-oxadiazol-5-yl)phenyl)-N^4-methylpyrimidine-2,4-diamine] as the compound, how does the Ki read?
Answer: Its Ki is 44 nM.

Question: How did the Ki turn out when `CNc1nc(Nc2cc(OC)c(-c3nnc(C)o3)cc2Cl)ncc1Cl` [Compound 37, 5-chloro-N^2-(2-chloro-5-methoxy-4-(5-methyl-1,3,4-oxadiazol-2-yl)phenyl)-N^4-methylpyrimidine-2,4-diamine] was run?
Answer: Its Ki is 12 nM.

Question: For `CNc1nc(Nc2ccc(-c3cn(C)nc3C)cc2OC)ncc1C(F)(F)F` [Compound 38, N2-(4-(1,3-dimethyl-1H-pyrazol-4-yl)-2-methoxyphenyl)-N4-methyl-5-(trifluoromethyl) pyrimidine-2,4-diamine], which Ki is on record?
Answer: The Ki was 2 nM.

Question: For `CNc1nc(Nc2ccc(-c3cnn(C)c3C)cc2OC)ncc1C(F)(F)F` [Compound 39, N2-(4-(1,5-dimethyl-1H-pyrazol-4-yl)-2-methoxyphenyl)-N4-methyl-5-(trifluoromethyl) pyrimidine-2,4-diamine], which Ki is on record?
Answer: Its Ki is 3 nM.

Question: How did the Ki turn out when `CNc1nc(Nc2cc(F)c(-c3cnn(C)c3C(=O)N(C)C)cc2OC)ncc1C(F)(F)F` [Compound 41, 4-(2-fluoro-5-methoxy-4-(4-(methylamino)-5-(trifluoromethyl)pyrimidin-2-ylamino)phenyl)-N,N,1-trimethyl-1H-pyrazole-5-carboxamide] was run?
Answer: The Ki was 1 nM.

Question: Which Ki does the source give for `CNc1nc(Nc2cc(F)c(-n3nnnc3C)cc2OC)ncc1C(F)(F)F` [Compound 42, N2-(5-fluoro-2-methoxy-4-(5-methyl-1H-tetrazol-1-yl)phenyl)-N4-methyl-5-(trifluoromethyl) pyrimidine-2,4-diamine] here?
Answer: The Ki was 3 nM.

Question: `CNc1nc(Nc2cc(F)c(-c3cnnn3C)cc2OC)ncc1C(F)(F)F` [Compound 43, N2-(5-fluoro-2-methoxy-4-(1-methyl-1H-1,2,3-triazol-5-yl)phenyl)-N4-methyl-5-(trifluoromethyl) pyrimidine-2,4-diamine] was tested. Which Ki did it give?
Answer: The Ki was 2 nM.

Question: With `CNc1nc(Nc2cc(F)c(-c3cnn(C4COC4)c3)cc2OC)ncc1C(F)(F)F` [Compound 44, N2-(5-fluoro-2-methoxy-4-(1-(oxetan-3-yl)-1H-pyrazol-4-yl)phenyl)-N4-methyl-5-(trifluoromethyl) pyrimidine-2,4-diamine] as the compound, how does the Ki read?
Answer: The Ki was 10 nM.

Question: Which Ki does the source give for `CNc1nc(Nc2cc(C)c(-n3nnnc3C)cc2OC)ncc1C(F)(F)F` [Compound 45, N2-(2-methoxy-5-methyl-4-(5-methyl-1H-tetrazol-1-yl)phenyl)-N4-methyl-5-(trifluoromethyl) pyrimidine-2,4-diamine] here?
Answer: The Ki was 1 nM.

Question: With `CNc1nc(Nc2cc(C)c(-n3nnnc3COC)cc2OC)ncc1C(F)(F)F` [Compound 46, N2-(2-methoxy-4-(5-(methoxymethyl)-1H-tetrazol-1-yl)-5-methylphenyl)-N4-methyl-5-(trifluuromethyl) pyrimidine-2,4-diamine] as the compound, how does the Ki read?
Answer: Its Ki is 1 nM.

Question: With `CNc1nc(Nc2cc(F)c(-n3nc(C)cc3COC)cc2OC)ncc1C(F)(F)F` [Compound 47, N2-(5-fluoro-2-methoxy-4-(5-(methoxymethyl)-3-methyl-1H-pyrazol-1-yl)phenyl)-N4-methyl-5-(trifluoromethyl) pyrimidine-2,4-diamine] as the compound, how does the Ki read?
Answer: The Ki was 5 nM.

Question: How did the Ki turn out when `CNc1nc(Nc2ccc(-n3nc(C)cc3COC)cc2OC)ncc1C(F)(F)F` [Compound 48, N2-(2-methoxy-4-(5-(methoxymethyl)-3-methyl-1H-pyrazol-1-yl)phenyl)-N4-methyl-5-(trifluoromethyl) pyrimidine-2,4-diamine] was run?
Answer: The Ki was 10 nM.

Question: Which Ki does the source give for `CNc1nc(Nc2cc(F)c(-n3nnnc3COC)cc2OC)ncc1C(F)(F)F` [Compound 49, N2-(5-fluoro-2-methoxy-4-(5-(methoxymethyl)-1H-tetrazol-1-yl)phenyl)-N4-methyl-5-(trifluoromethyl) pyrimidine-2,4-diamine] here?
Answer: Its Ki is 4 nM.
